Converted amounts (≈) assume the structure as drawn. Where a name gives a salt, the structure may show the parent alone. Read-outs that look alike come from different tables or passages of the source.
Experiments:
[1] = cytotoxicity in MT-4 cells (MTT, culture medium in place of HIV); type: cell-based; details: human
Description: (§1) The anti-HIV activity of each of the compounds produced in Examples was assayed by the following procedures. (1) Human T cell line MOLT-4 clone 8 persistently infected by HIV (HTLV-IIIB strain) was cultured in an RPMI-1640 medium supplemented with 10% fetal calf serum, the culture supernatant was filtered, and the titer of virus was determined; the culture supernatant was stored at -80° C. On the other hand, the test compound was diluted with the above culture medium to predetermined concentrations and distributed in 50 μl aliquots into a 96-well microtiter plate. Then, d suspension of MT-4 cells was added in 100 μl aliquots (3.5×10^4 cells per well) and then the above HIV-containing supernatant diluted with the above culture medium was added, 50 μl (60 pfu (plaque forming units)) per well. (2) The plate was incubated in a CO2 incubator at 37° C. for 5 days. Then, 30 μl/well of 3-(4,5-dimethyl thiazol-2-yl)-2,5-diphenyltetrazolium bromide (MTT) (5 mg/ml PBS) was added and the incubation was further continued for 1 hour. The surviving cells reducing MTT yield precipitation of formazan. Therefore, 150 μl portions of the culture supernatant were removed from all wells and, instead, 150 μl of a solution (10% Triton X-100 and 0.4% (v/v) HCl-added isopropyl alcohol) was added. The plate was shaken on a plate mixer to dissolve the formazan. The OD of formazan was measured with a microreader at 560 nm arid 690 nm (reference wavelength) and the result was compared with that of control.
The cytotoxicity of each of the compounds produced in Examples was assayed. In place of the HIV-containing supernatant (the virus suspension) in (1) in Test Example 1, 50 μl of the culture medium was added to each well, and the cytotoxicity was determined in the same manner as that for (2) in Test Example 1.

[2] = biological target: T1, purified recombinant HIV-1 reverse transcriptase (Human immunodeficiency virus type 1 group M subtype B, UniProt P04585); assay: reverse transcriptase inhibition, poly(rA)/(dT) template primer, [3H]dTTP uptake; type: biochemical
T1 construct: purified recombinant HIV-1 reverse transcriptase; made in house; host or cells: Escherichia coli
Description: The reverse transcriptase activity of each of the compounds synthesized in Examples was assayed by the following procedures.
Using the purified recombinant HIV-1 reverse transcriptase RT, E.C. 2.7.7.49) obtained by expression in Escherichia Coli, a 96-well plate assay system was established for assaying a large number of samples. The RT inhibitory activity was determined as follows. To 11 μl of a solution of the test inhibitor in water or MSO was added 100 μl of a reaction mixture (0.1 unit/100 μl RT, 50 mM Tris-HCl pH 8.3, 150 mM KCl, 10 mM MgCl2, 3 mM dithiothreitol, 0.1% Nonidet P-40, 10 μg/ml. poly(rA) and 10 μg/ml (dT)12-1.8 as template and primer, and 4 μM dTTP, 1 μCi/100 μl [^3 H]dTTP as substrate) and the mixture was incubated at 37° C. for 1 hour and, then, immediately cooled on ice. Using a cell harvester, the reaction mixture was transferred to a DEAE-filter mat (LKB-Pharmacia). Then, using the wash line of the cell harvester, the cells were washed twice with 5% Na2 HPO4 /H2 O and once with water and dried at 95° C. for 15 minutes. […] The inhibitory activity was expressed in percent inhibition relative to the uptake on water or DMSO control.

HIV (HTLV-IIIB strain) = assay: microbe, parasite or virus in culture; type: cell-based; details: Human immunodeficiency virus 1, IIIB, MT4, 120 h
Description: as §1, with “(1) Human T cell line MOLT-4 clone 8 persistently infected by HIV (HTLV-IIIB strain) was cultured in an RPMI-1640 medium supplemented with 10% fetal calf serum, the culture supernatant was filtered, and the titer of virus was determined; the culture supernatant was stored at -80° C.” left out, “formazan.” for “formazan. The OD of formazan was measured with a microreader at 560 nm arid 690 nm (reference wavelength) and the result was compared with that of control.”

[3] = MT-4 cells, no virus, 37° C., 5 days, MTT, Table 3, read-out: CC50
[4] = MT-4 cells, 60 pfu HIV per well, 37° C., 5 days, MTT, Tables 1 and 2, read-out: EC50

Compound	CC50 at 120 h [1, 3]	IC50 [2]	also measured
CCCCCCCCCCCCn1c(CO)nc(C(C)C)c1Sc1cc(Cl)cc(Cl)c1 [Compound I-18, [5-(3,5-dichlorophenylthio)-1-dodecyl-4-isopropyl-1H-imidazol-2-yl]methanol]	10 to 100 µg/mL (≈ 20.6 to 206 µM)	> 206 µM	
CC(C)c1nc(CO)n(CC(=O)c2ccccc2)c1Sc1cc(Cl)cc(Cl)c1 [Compound I-31, [1-benzoylmethyl-5-(3,5-dichlorophenylthio)-4-isopropyl-1H-imidazol-2-yl]methanol]	100 µg/mL (≈ 230 µM)		EC50 (HIV (HTLV-IIIB strain); [4]): 60 ng/mL (≈ 0.138 µM)
CC(C)c1nc(COC(N)=O)n(Cc2ccccc2)c1Sc1cccc(Cl)c1 [Compound I-46, 1-benzyl-2-carbamoyloxymethyl-5-(3-chlorophenylthio)-4-isopropyl-1H-imidazole]	12.5 to 25 µg/mL (≈ 30.1 to 60.1 µM)	1.92 µM	
CCn1c(COC(N)=O)nc(C(C)C)c1Sc1cccc([N+](=O)[O-])c1 [Compound I-49, 2-carbamoyloxymethyl-1-ethyl-4-isopropyl-5-(3-nitrophenylthio)-1H-imidazole]	25 µg/mL (≈ 68.6 µM)		EC50 (HIV (HTLV-IIIB strain)): 4 to 8 ng/mL (≈ 0.011 to 0.022 µM)
CCCn1c(COC(N)=O)nc(C(C)C)c1Sc1cccc([N+](=O)[O-])c1 [Compound I-50, 2-carbamoyloxymethyl-4-isopropyl-5-(3-nitrophenylthio)-1-n-propyl-1H-imidazole]	> 100 µg/mL		EC50 (HIV (HTLV-IIIB strain); [4]): 8 ng/mL (≈ 0.0211 µM)
CC(=O)OCCOCc1nc(Sc2cc(Cl)cc(Cl)c2)c(C(C)C)n1C [Compound I-64, 2-[4-(3,5-dichlorophenylthio)-5-isopropyl-1-methyl-1H-imidazol-2-yl]methoxy} ethyl acetate]	12.5 to 25 µg/mL	> 240 µM	
CC(C)c1c(Sc2cc(Cl)cc(Cl)c2)nc(COCCOC(N)=O)n1C [Compound I-65]	12.5 to 25 µg/mL (≈ 29.9 to 59.8 µM)	> 239 µM	
CC(C)c1nc(CN)n(CF)c1Sc1cc(Cl)cc(Cl)c1 [Compound I-77, 2-aminomethyl-5-(3,5-dichlorophenylthio)-1-fluoromethyl-4-isopropylimidazole]	10 µg/mL (≈ 28.7 µM)	3.73 µM	
CC(=O)NCc1nc(C(C)C)c(Sc2cc(Cl)cc(Cl)c2)n1C [Compound I-83]	6.3 to 12.5 µg/mL (≈ 16.9 to 33.6 µM)	218 µM	
Cc1ccc(S(=O)(=O)NCc2nc(C(C)C)c(Sc3cc(Cl)cc(Cl)c3)n2C)cc1 [Compound I-88, 5-(3,5-dichlorophenylthio)-4-isopropyl-1-methyl-2-p-toluenesulfonylaminomethyl-1H-imidazole]	1 to 10 µg/mL (≈ 2.06 to 20.6 µM)	> 206 µM	
CC(C)c1nc(COC(N)=O)n(Cc2ccccn2)c1Sc1cc(Cl)cc(Cl)c1 [Compound I-93]	12.5 µg/mL (≈ 27.7 µM)		EC50 (HIV (HTLV-IIIB strain)): 0.5 to 1 ng/mL (≈ 0.00111 to 0.00222 µM)
Cc1cc(C)cc(S(=O)(=O)c2c(C(C)C)nc(CO)n2C)c1 [Compound I-107, [5-(3,5-dimethylphenylsulfonyl)-4-isopropyl-1-methyl-1H-imidazol-2-yl]methanol]	> 100 µg/mL	194 µM	
CC(C)c1nc(CO)n(C)c1[S+]([O-])c1cc(Cl)cc(Cl)c1 (stereo not drawn) [Compound I-108, [5-(3,5-dichlorophenylsulfinyl)-4-isopropyl-1-methyl-1H-imidazol-2yl]methanol]	10 to 100 µg/mL (≈ 28.8 to 288 µM)		EC50 (HIV (HTLV-IIIB strain); [4]): 1000 ng/mL (≈ 2.88 µM)
CC(C)c1nc(CO)n(C)c1S(=O)(=O)c1cc(Cl)cc(Cl)c1 [Compound I-109, [5-(3,5-dichlorophenylsulfonyl)-4-isopropyl-1-methyl-1H-imidazol-2-yl]methanol]	> 100 µg/mL		EC50 (HIV (HTLV-IIIB strain); [4]): 500 ng/mL (≈ 1.38 µM)
CC(C)c1nc(CN)n(C)c1[S+]([O-])c1cc(Cl)cc(Cl)c1 (stereo not drawn) [Compound I-110, 2-aminomethyl-5-(3,5-dichlorophenylsulfinyl)-4-isopropyl-1-methyl-1H-imidazole]	10 to 100 µg/mL (≈ 28.9 to 289 µM)		EC50 (HIV (HTLV-IIIB strain); [4]): 10000 ng/mL (≈ 28.9 µM)
CC(C)c1nc(CN)n(C)c1S(=O)(=O)c1cc(Cl)cc(Cl)c1 [Compound I-111, 2-aminomethyl-5-(3,5-dichlorophenylsulfonyl)-4-isopropyl-1-methyl-1H-imidazole]	1 to 10 µg/mL (≈ 2.76 to 27.6 µM)		
CC(C)c1nc(CNC(=O)C(F)(F)F)n(C)c1[S+]([O-])c1cc(Cl)cc(Cl)c1 (stereo not drawn) [Compound I-112, 5-(3,5-dichlorophenylsulfinyl)-4-isopropyl-1-methyl-2-trifluoroacetylaminomethyl-1H-imidazole]	> 100 µg/mL		EC50 (HIV (HTLV-IIIB strain); [4]): > 100000 ng/mL
CC(C)c1nc(CO)[nH]c1[S+]([O-])c1cc(Cl)cc(Cl)c1 (stereo not drawn) [Compound I-113, [5-(3,5-dichlorophenylsulfinyl)-4-isopropyl-1H-imidazol-2-yl]methanol]	100 µg/mL (≈ 300 µM)		EC50 (HIV (HTLV-IIIB strain); [4]): 100000 ng/mL (≈ 300 µM)
CC(C)c1nc(CO)[nH]c1S(=O)(=O)c1cc(Cl)cc(Cl)c1 [Compound I-114, [5-(3,5-dichlorophenylsulfonyl)-4-isopropyl-1H-imidazol-2-yl]methanol]	10 to 100 µg/mL (≈ 28.6 to 286 µM)		EC50 (HIV (HTLV-IIIB strain); [4]): 10000 ng/mL (≈ 28.6 µM)
CC(C)c1nc(COC(N)=O)n(C)c1[S+]([O-])c1cc(Cl)cc(Cl)c1 (stereo not drawn) [Compound I-115, 2-carbamoyloxymethyl-5-(3,5-dichlorophenylsulfinyl)-4-isopropyl-1-methyl-1H-imidazole]	10 to 100 µg/mL (≈ 25.6 to 256 µM)		
CC(C)c1nc(CO)n(Cc2ccc(C(C)(C)C)cc2)c1Sc1cc(Cl)cc(Cl)c1 [Compound I-116, 1-(p-t-butylbenzyl)-5-(3,5-dichlorophenylthio)-2-hydroxymethyl-4-isopropyl-1H-imidazole hydrochloride]		> 200 µM	CC50 at 120 h ([1]; mt-4 cells): 25 µg/mL
CC(=O)Nc1ccc(Cn2c(CO)nc(C(C)C)c2Sc2cc(Cl)cc(Cl)c2)cc1 [Compound I-117, 1-(p-N-acetylaminobenzyl)-5-(3,5-dichlorophenylthio)-2-hydroxymethyl-4-isopropyl-1H-imidazole]		8.18 µM	CC50 at 120 h ([1]; mt-4 cells): 50 µg/mL (≈ 108 µM)
CC(C)c1nc(CO)n(Cc2cccc(N)c2)c1Sc1cc(Cl)cc(Cl)c1 [Compound I-118, 1-(m-aminobenzyl)-5-(3,5-dichlorophenylthio)-2-hydroxymethyl-4-isopropyl-1H-imidazole]		2.13 µM	CC50 at 120 h ([1]; mt-4 cells): 12.5 to 25 µg/mL (≈ 29.6 to 59.2 µM)
CC(C)c1nc(COC(N)=O)n(Cc2ccc[nH]c2=O)c1Sc1cc(Cl)cc(Cl)c1 [Compound I-132, 2-carbamoyloxymethyl-5-(3,5-dichlorophenylthio)-1-(2-oxo-1,2-dihydro-pyridin-3-yl)methyl-4-isopropyl-1H-imidazole]		1.39 µM	CC50 at 120 h ([1]; mt-4 cells): 12.5 to 25 µg/mL (≈ 26.7 to 53.5 µM)
CC(C)c1nc(CCOC(N)=O)n(Cc2ccccc2N)c1Sc1cc(Cl)cc(Cl)c1 [Compound I-144, l-(o-aminobenzyl)-2-(2-carbamoyloxyethyl)-5-(3,5-dichlorophenylthio)-4-isopropyl-1H-imidazole]		> 209 µM	CC50 at 120 h ([1]; mt-4 cells): 6.3 to 12.5 µg/mL (≈ 13.1 to 26.1 µM)
CC(C)c1nc(COC(N)=O)n(Cc2ccncc2)c1Sc1cc(Cl)cc(Cl)c1 [I-93', 2-carbamoyloxymethyl-5-(3,5-dichlorophenylthio)-4-isopropyl-1-(pyridin-4-yl)methyl-1H-imidazole]	10 to 100 µg/mL (≈ 22.2 to 222 µM)		EC50 (HIV (HTLV-IIIB strain)): 0.06 to 0.13 ng/mL (≈ 0.000133 to 0.000288 µM)
[5-(3,5-dichlorophenylthio)-1-(1-fluoroethyl)-4-isopropyl-1H-imidazol-2-yl]methanol [Compound I-35]			RT IC50 ([2]; pH 8.3, 37° C., 1 hour, Tables 5 and 6): 0.69 µg/mL
